How the values were obtained:
[1] = system: unpurified EBs of murine iPSCs; experiment: Flow cytometry (cTnT) and cell yield of unpurified EBs; type: cell-based; details: for cTnT+ CM population / fold increase of CM purity (cTnT+) compared to DMSO-treated control / reduction of total cell yield relative to DMSO control: day 9 to day 16: SM6 1 μM then 5 μM from day 14, puromycin 8 μg/ml
Procedure: Purifying the whole CM population including GFP-negative CMs in murine PSC-derived EBs was tested with SM6 as well. EBs from day 9 of differentiation were treated starting with 1 μM of SM6 for 5 days followed by treatment with 5 μM from day 14 until day 16 of differentiation. The percentage of CM population in EBs was monitored by flow cytometry and the amount of contaminating PSCs was quantified by colony formation assay as described above. Fluorescence images of PSC-derived cell aggregates were captured with a Zeiss Axiovert 200M fluorescence microscope and analyzed with Zeiss Axiovision 4.5 software.
Determination of CM purity in the cell population was performed by flow cytometric analysis. PSC-derived EBs or cardiac clusters were dissociated with 0.25% trypsin-EDTA. Dead cells were stained with LIVE/DEAD fixable dead cell stain kit (Life Technologies) prior to cell fixation using in 4% PFA for 15 min. Immunological staining of cardiac Troponin T (cTnT) was performed in order to detect the total CM population including GFP-negative CMs. […] An anti-cTnT mouse antibody (sc-20025, Santa Cruz, Dallas, USA) and the corresponding isotype control (sc-3878, Santa Cruz) were diluted 1:50 in 0.8% BSA in PBS with 1% saponin and incubated for 30 min at 4° C., respectively. After washing the cells with PBS, cells were incubated with an AF555-conjugated secondary antibody (1:100, A21422, Life Technologies) in 0.8% BSA and 1% saponin in PBS for 1 h at 4° C.
Cells were measured with an Attune acoustic focusing cytometer (Life Technologies) and data was analyzed with the Attune Cytometric software v1.2.5 (Life Technologies). Marker expression was analyzed in a gated population of 10^4 viable cells.
In order to determine whether it is possible to entirely replace puromycin pre-treatment with SM6 and thus circumvent the need for genetic manipulation of PSCs to enable CM selection, the SM6 was supplemented to the differentiation medium of miPSCs from day 9 onwards starting with a concentration of 1 μM which was increased to 5 μM from day 14 until day 16 of differentiation, as is schematically illustrated in FIG. 8a). Control cells received 0.025% DMSO or 8 μg/ml puromycin during this time period (day 9 to day 16 of differentiation).

[2] = system: αPIG-AT25 miPSC-derived cardiomyocytes; experiment: Cell viability (PrestoBlue) of miPSC-derived cardiomyocytes; type: cell-based, murine
Procedure: The differentiation of transgenic mPSCs was initiated in mass cultures as briefly described below. One million cells were transferred per non-adhering 10 cm dish with 14 ml differentiation medium composed of Iscove's Modified Dulbecco's Medium (IMDM) with GlutaMAX (Life Technologies) supplemented with 20% FBS, 1×NEAA and 100 μM β-ME. Embryoid bodies (EBs) from day 2 of differentiation were transferred in a 250 ml spinner flask (CELLSPIN 250, Integra Biosciences, Fernwald, Germany) with a density of 3×10^4 EBs per 200 ml of differentiation medium. On the first 2 days of differentiation medium was supplemented with 50 μg/ml L-ascorbic acid phosphate (AA, Wako pure chemicals industry, Japan) in order to promote the development of cardiac cells. For the selection of GFP-expressing CMs, 50 ml of the medium was exchanged with fresh differentiation medium and 8 μg/ml puromycin (Life Technologies) were supplemented on day 9 of differentiation. Two days later, the cardiac clusters were transferred on non-adhering 10 cm dishes with fresh differentiation medium containing 8 μg/ml puromycin. In the further course of differentiation medium was exchanged every 2-3 days. If not otherwise specified, the purification of GFP-positive CMs with puromycin was continued until day 16 of differentiation. For single cell analyses and transfer of PSC-derived CMs on cell culture plates, cardiac clusters were dissociated with 0.25% trypsin-EDTA (Life Technologies) supplemented with 50 U/ml DNase I (AppliChem, Darmstadt, Germany) for 20-30 min at 37° C. The mPSC-derived CMs were filtered through a polyamide membrane with […] pore size (Sefar, Heiden, Switzerland). Cell numbers were determined with a Neubauer hemocytometer and cells were stored on ice until further use.
Serial dilutions of DMSO stock solutions of PluriSIn #1 (Sigma-Aldrich, catalog number SML0682) or one of small molecules SM1-SM10, were prepared from 20 mM stock solutions with cell culture medium. Murine PSCs were dissociated with 0.05% trypsin-EDTA, seeded on 0.1% gelatin-coated 96-well plates with a density of 5000 cells/well and cultured in maintenance medium supplemented with 1000 U/ml of mLIF. After 1 day, cells were incubated with 40 μM PluriSIn #1 and derivatives for 72 h or with 0.01-25 μM SMs for 48 h, respectively. For treatment of corresponding PSC-derived CMs with SMs, puromycin-selected miPSC-CMs from day 14 of differentiation were dissociated with 0.25% trypsin-EDTA as described above and plated on 96-well plates (5×10^4 cells/well) which were pre-coated with 5 μg/ml fibronectin (PromoCell, Heidelberg, Germany). After culturing miPSC-CMs with 8 μg/ml puromycin for 2 more days, they were incubated in differentiation medium supplemented with 0.1-100 μM of SMs for 48-72 h. Following small molecule treatment, cell viability was determined with PrestoBlue cell viability reagent (Life Technologies). To this end, cells were washed with PBS (with calcium and magnesium, Life Technologies) and incubated with PrestoBlue reagent diluted in cell culture medium for 40 min at 37° C.
Fluorescence intensities correlating with the number of viable cells in the wells were measured in black flat-bottom 96-well plates (Greiner Bio-One, Kremsmünster, Austria) with a GeniosPro microplate reader (Tecan, Männedorf, Schweiz).
The selectivity of compounds was investigated by comparing their cytotoxicity against undifferentiated iPSCs and iPSC-derived CMs. Murine iPSCs αPIG-AT25 were incubated for 48 h with compounds SM1, SM2, SM4, SM5, SM6 and SM8 in concentrations of 0.01 to 10 μM. Cell culture and cardiac differentiation were performed as described above. Experiments were run at least in quadruplicate. The cell viability was determined using PrestoBlue cell viability reagent.
The viability of salicylic diamine-treated CMs was confirmed by 72 h of exposure to concentrations of 0.01 μM, 0.1 μM, 1 μM, 10 μM and 25 μM of compounds SM1, SM2, SM4, SM5, SM6 and SM8.

| Structure (SMILES) | cTnT+ CM population [1] [%] | fold increase of CM purity (cTnT+) compared to DMSO-treated control [1] [fold] | reduction of total cell yield relative to DMSO control [1] [%] | effect on the viability of cardiomyocytes ([2]; 10 μM, two day-treatment) | toxicity to differentiated cardiomyocytes ([2]; summary in description) | fold higher yield of cTnT+ CMs compared to the treatment with puromycin ([1]; SM6 1 μM then 5 μM from day 14, p<0.01) [fold] | CM yield higher compared to the DMSO-treated control group ([1]; in three out of five experiments) | decrease of cardiomyocyte viability, in average over SM1, SM4 and SM8 ([2]; 10 μM, 72 h of exposure) [%] |
| --- | --- | --- | --- | --- | --- | --- | --- | --- |
| COc1ccc(C[C@H](N)C(=O)N[C@H]2[C@@H](O)[C@H](n3cnc4c(N(C)C)ncnc43)O[C@@H]2CO)cc1 [puromycin, reference compound] | 93.26±3.05 | 3.08±1.42 | 92.17±3.53 |  |  |  |  |  |
| Oc1ccccc1CN[C@@H]1CCCC[C@H]1NCc1ccccc1O [SM6, (1R,2R)-N,N′-di(2-hydroxybenzyl)-1,2-diaminocyclohexane] | 77.57±12.26 | 2.56±1.25 | 56.6±10.44 | no significant effect | not toxic | 2.72±1.61 | 31-86% |  |
| Oc1c(CNC2CCCC[C@@H]2NCc2cccc(-c3ccccc3)c2O)cccc1-c1ccccc1 (stereo partly drawn) [SM8, (1S,2R)-N,N′-di[(2-hydroxy-3-phenyl)-benzyl]-1,2-diaminocyclohexane] |  |  |  |  |  |  |  | 79.79±14.72 |

From patent US11299453B2 (Universität zu Köln, priority 2017, dated 2022)
